Data set [1] relates to KG1a leukemic stem cells (Lin–/CD34+/CD38–/CD123+). Nature of the data set: Leukemic stem cell targeting in KG1a cultures (flow cytometry). Format: cell-based, human. The following applies: 72 h, LSC vs bulk tumor. On the procedure: The acute myeloid leukemia (AML) KG1a cell line was maintained in RPMI medium (Invitrogen, Paisley, U.K.) supplemented with 100 units/mL penicillin, 100 μg/mL streptomycin, and 20% FBS. […] In addition, control cultures were carried out to which no drug was added. The cells were subsequently harvested by centrifugation and were analyzed by flow cytometry using the Annexin V assay. All experiments were performed in triplicate. LC50 values (the concentration of compound required to kill 50% of the cells in culture) were calculated by nonlinear regression modeling using GraphPad Prism software and are shown as mean ± standard error of the mean (SEM) for each replicate data set.
Cells were then harvested, and KG1a cells were labeled with anti-CD34 (FITC), anti-CD38 (PE), and anti-CD123 (PERCP cy5). The subpopulation expressing a leukemic stem cell (LSC) phenotype was subsequently identified and was expressed as a percentage of all viable cells left in the culture. The percentages of stem cells remaining were then plotted on a dose–response graph, and the effects of the ProTides were compared with the parental nucleoside to determine if they preferentially target cancer stem cells

The target in data set [2] is T1, adenosine deaminase (ADA) (Bos taurus, UniProt P56658).
T1 construct: purchased Sigma-Aldrich 59722
T1 sequence (P56658 1-363): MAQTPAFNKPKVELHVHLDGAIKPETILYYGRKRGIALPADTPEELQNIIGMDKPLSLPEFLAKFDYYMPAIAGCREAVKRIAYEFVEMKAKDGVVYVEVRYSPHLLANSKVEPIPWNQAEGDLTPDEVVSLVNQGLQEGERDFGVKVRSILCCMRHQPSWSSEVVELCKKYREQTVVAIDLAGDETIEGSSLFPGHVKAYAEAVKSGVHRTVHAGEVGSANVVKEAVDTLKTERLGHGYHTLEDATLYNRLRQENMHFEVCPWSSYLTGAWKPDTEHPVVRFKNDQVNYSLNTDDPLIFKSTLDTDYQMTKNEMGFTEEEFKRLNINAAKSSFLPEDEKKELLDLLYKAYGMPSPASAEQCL
Nature of the data set: Adenosine deaminase assay (UV). Format: in vitro ADME, Bovine. Conditions: 62.5 μM. The method, then: Bovine recombinant adenosine deaminase (ADA, EC:3.5.4.4) was purchased from Sigma (Sigma-Aldrich, product number 59722). The ADA suspension (containing >2 U/mL) was aliquoted into 55 μL portions and kept at −20 °C. Before use, a 55 μL sample was thawed and 1 mL of phosphate buffer (0.1 N, pH 7.4) was added. The suspension was filtered through a 0.2 μm filter to remove precipitates that could interfere with the absorbance measurements. The clear supernatant was used for the degradation experiments. The experiments were conducted in UV transparent cuvettes (Sigma-Aldrich, code: Z637092) using an Envision microplate reader (PerkinElmer). […] Scans of the absorption spectrum were taken between 220 and 350 nm with 2 nm resolution every 0.1 min over a period of 10 min to 12 h. One sample containing only ADA was also prepared, and this was subtracted to obtain the spectrum over time for substrates.

Data set [3] can be described thus: Plasma stability. Format: in vitro ADME. Conditions: mouse plasma. On the procedure:
(§1) Plasma samples (10 mL of human, beagle dog, mouse, or rats from Sera laboratories, U.K.) were treated with and without 1 μM of EHNA, after which 20 μM concentration of each drug (3′dA and ProTides) was added and incubated for 2 h at 37 °C with 5% CO2. After incubation, 100 μL of each sample was taken and 300 μL of 100% methanol was added and left on ice for 30 min. After 30 min, the mixture was centrifuged (14 000 rpm, 4 °C, 10 min), and the supernatant was transferred to new tubes and evaporated under SpeedVac. Then, the dried extract was reconstituted in 100 μL of 10% acetonitrile, then transferred to LC-MS vials, and 10 μL was injected into the UPLC-MS/MS system.

Data set [4] can be described thus: Plasma stability. Format: in vitro ADME. The following applies: for half-life at 24 h, 20 µM: human, plasma. On the procedure: […] After incubation, 100 μL of each sample was taken and 300 μL of 100% methanol was added and left on ice for 30 min. After 30 min, the mixture was centrifuged (14 000 rpm, 4 °C, 10 min), and the supernatant was transferred to new tubes and evaporated under SpeedVac. Then, the dried extract was reconstituted in 100 μL of 10% acetonitrile, then transferred to LC-MS vials, and 10 μL was injected into the UPLC-MS/MS system.

Data set [5] concerns Z138. Nature of the data set: cells. Format: cell-based. The following applies: for CC50: Homo sapiens, Z-138, 72 h, read-out: LC50; for MI%: Z138, maximum inhibitory effect over concentration range. Put shortly:
(§2)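 Antiproliferative effect: 72 h treatment, MTS colorimetric endpoint (4 h at 37 °C). Dose range topped at 198 μM, 3.16-fold titration.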

In data set [6] the test system is HT29. Nature of the data set: cells. Conditions: for MI%: HT29, maximum inhibitory effect over concentration range; for CC50: Homo sapiens, HT-29, 72 h, read-out: lC50. It counts as cell-based. An outline of the steps: as §2
For data set [7], the system named is CCRF-CEM. Nature of the data set: cells. Conditions: Homo sapiens, 72 h; for Emax: read-out: MI%; for CC50: read-out: LC50. It counts as cell-based. Put shortly:
as §2

Data set [8] deals with HL-60. The experiment in a line: cells. It counts as cell-based. The following applies: Homo sapiens; for Emax: read-out: MI%; for CC50: read-out: LC50. An outline of the steps: as §2
Data set [9] is described as follows: Plasma stability. It counts as in vitro ADME, beagle dog. The following applies: dog plasma, with or without EHNA. The method, then: as §1

The structures appear in SMILES notation. Read-outs that look alike come from different tables or passages of the source. Some results are limits rather than exact numbers.

The source of these data is article PMC9743095 (Journal of Medicinal Chemistry, 2022).

Regarding `Nc1ncnc2c1ncn2[C@@H]1O[C@H](CO)C[C@H]1O` [3′-dA, 3′-Deoxyadenosine, reference compound], the “effect on proportion of leukemic stem cells (LSCs)” value in [1] was “increased selectivity and potency against the putative leukemic stem cells”. In data set [2] (bovine, pH 7.4), the “time to complete metabolic deamination by ADA” value was “up to 2 minutes”. In addition, in data set [3], the half-life at 20 μM was determined as 0.417 h. In addition, the “remaining after 24 h” value in data set [4] (human plasma, with EHNA) was 42.1%. The “time until completely metabolized” value in [4] (human plasma, without EHNA) amounted to 4 h. The half-life at 24 h, 20 µM in data set [4] (with EHNA) was found to be 4.2 h; in [4] (without EHNA), 1.03 h. Also, the CC50 is 12.2 µM in data set [5]; greater than 198 µM in [6]; greater than 198 µM in data set [7]; 76.8 µM in data set [8] (HL-60, 72 h). Moreover, the MI% in data set [5] is on record as 95%; in data set [6] it was 44%. Besides, the Emax in [7] (maximum inhibitory effect over concentration range) turned out to be 12%; in [8] (72 h, HL-60, maximum inhibitory effect over concentration range) it was 88%. In addition, the stability in plasma result in data set [9] was “like those found in human plasma”.
For `C[C@H](NP(=O)(OC[C@@H]1C[C@@H](O)[C@H](n2cnc3c(N)ncnc32)O1)Oc1ccccc1)C(=O)OCc1ccccc1` (stereo partly drawn) [Compound 7a, (Rp)- and (Sp)-3′-Deoxyadenosine 5′-O-phenyl-(benzoxy-L-alaninyl)-phosphate], the “effect on proportion of leukemic stem cells (LSCs)” value in data set [1] was “significantly reducing the LSC population to a greater extent than the parent nucleoside at concentrations above 1 μM”. Besides, in data set [2] (ADA from calf, phosphate buffer pH 7.4, 25 °C, 12 h), the “UV absorbance spectra in absence and presence of ADA” value is recorded as “the two lines are superimposed”. Besides, the “shift of the maximum absorption after ADA addition (deamination)” value in data set [2] (up to 2 h) is “no shift of the maximum absorption at 265 nm”. Besides, the “concentration detected after 30 s of incubation” value in [3] turned out to be 0.5 ng/mL; in [4] (human plasma) it was 10000 ng/mL. Further, the “change in plasma concentration” value in [4] (human plasma, up to 4 h) was “no change in plasma concentration”. The CC50 was 27 µM in data set [5]; 13.4 µM in data set [6]; 2.36 µM in [7]; 17.8 µM in [8] (HL-60, 72 h). The MI% was found to be 95% in data set [5] and 93% in data set [6]. Besides, the Emax in [7] amounted to 100%; in data set [8] (HL-60, 72 h), 97%. The stability in plasma entry in [9] is listed as “like those found in human plasma”.
In the case of `CCOC(=O)CCc1ccccc1OP(=O)(N[C@@H](C)C(=O)OCc1ccccc1)OC[C@@H]1C[C@@H](O)[C@H](n2cnc3c(N)ncnc32)O1` (stereo partly drawn) [Compound 7e], the CC50 in [5] was 68.2 µM; in data set [6], 25.2 µM; in [7] it was 40.1 µM; in [8] (HL-60, 72 h), 78.5 µM. The MI% in data set [5] is 76%; in data set [6], 89%. The Emax in data set [7] came to 90%; in data set [8] (HL-60, 72 h), 74%.

By half-life is commonly meant the time in which the quantity being followed falls by half.
